For one assay, the system named is Candida albicans. In words: Concentration that substantially inhibit growth of Candida albicans. The class given is functional, organism-based.
The next assay concerns Cryptococcus neoformans. As to the kind of experiment: Concentration that substantially inhibit the growth of Cryptococcus neoformans. It is filed as functional.

The record followed here is ChEMBL document CHEMBL1135126, “Identification of novel antifungal nonapeptides through the screening of combinatorial peptide libraries based on a hexapeptide motif” (Bioorg Med Chem Lett, 2002).

Converted amounts (≈) assume the structure as drawn.

Compound `CC[C@H](C)[C@H](NC(=O)[C@@H](Cc1ccccc1)NC(=O)[C@@H](Cc1c[nH]c2ccccc12)NC(=O)[C@@H](N)CCCN=C(N)N)C(=O)N[C@H](Cc1ccccc1)C(=O)N[C@@H](Cc1c[nH]cn1)C(=O)N[C@@H](CCCCN)C(=O)N[C@@H](CCCCN)C(=O)N1CCC[C@H]1C(N)=O` gave a 50% inhibitory concentration (IC50) in the assay on Candida albicans of 3.89 µM. The MIC against Cryptococcus neoformans came to 2.43 µM (≈ 3.06 µg/mL).
With `CC[C@H](C)[C@H](NC(=O)[C@@H](Cc1ccccc1)NC(=O)[C@@H](Cc1c[nH]c2ccccc12)NC(=O)[C@@H](N)CCCN=C(N)N)C(=O)N[C@H](Cc1ccccc1)C(=O)N[C@@H](Cc1c[nH]cn1)C(=O)N[C@@H](CCCCN)C(=O)N[C@@H](CCCN=C(N)N)C(=O)N[C@@H](CCSC)C(N)=O`, the IC50 in the assay with Candida albicans amounted to 4.62 µM. The lowest concentration to inhibit growth with Cryptococcus neoformans (MIC) was 2.36 µM (≈ 3.11 µg/mL).
In the assay with Candida albicans, `CC[C@H](C)[C@H](NC(=O)[C@@H](Cc1ccccc1)NC(=O)[C@@H](Cc1c[nH]c2ccccc12)NC(=O)[C@@H](N)CCCN=C(N)N)C(=O)N[C@H](Cc1ccccc1)C(=O)N[C@@H](Cc1c[nH]cn1)C(=O)N[C@@H](CCCCN)C(=O)N[C@@H](CCCN=C(N)N)C(=O)N[C@@H](CC(C)C)C(N)=O` returned an IC50 of 4.37 µM. Besides, the MIC against Cryptococcus neoformans came to 2.39 µM (≈ 3.11 µg/mL).
Turning to `CC[C@H](C)[C@H](NC(=O)[C@@H](Cc1ccccc1)NC(=O)[C@@H](Cc1c[nH]c2ccccc12)NC(=O)[C@@H](N)CCCN=C(N)N)C(=O)N[C@H](Cc1ccccc1)C(=O)N[C@@H](Cc1c[nH]cn1)C(=O)N[C@@H](CCCCN)C(=O)N[C@@H](CCCN=C(N)N)C(=O)N[C@@H](Cc1c[nH]c2ccccc12)C(N)=O`, the IC50 in the assay on Candida albicans was determined as 6.35 µM. In the assay on Cryptococcus neoformans, it took 4.54 µM (≈ 6.24 µg/mL) to inhibit growth (MIC).
Consider `CC[C@H](C)[C@H](NC(=O)[C@@H](Cc1ccccc1)NC(=O)[C@@H](Cc1c[nH]c2ccccc12)NC(=O)[C@@H](N)CCCN=C(N)N)C(=O)N[C@H](Cc1ccccc1)C(=O)N[C@@H](Cc1c[nH]cn1)C(=O)N[C@@H](CCCCN)C(=O)N[C@@H](CCCN=C(N)N)C(=O)N[C@@H](Cc1ccccc1)C(N)=O`, for which the IC50 in the assay on Candida albicans was 5.5 µM. The MIC with Cryptococcus neoformans worked out at 4.67 µM (≈ 6.24 µg/mL).
The compound `CC[C@H](C)[C@H](NC(=O)[C@@H](Cc1ccccc1)NC(=O)[C@@H](Cc1c[nH]c2ccccc12)NC(=O)[C@@H](N)CCCN=C(N)N)C(=O)N[C@H](Cc1ccccc1)C(=O)N[C@@H](Cc1c[nH]cn1)C(=O)N[C@@H](CCCCN)C(=O)N[C@@H](CCCN=C(N)N)C(=O)N[C@@H](CCCN=C(N)N)C(N)=O` displayed a concentration for half-maximal inhibition (IC50) with Candida albicans of 4.15 µM. The compound also gave an MIC against Cryptococcus neoformans of 4.64 µM (≈ 6.24 µg/mL).
In the assay on Candida albicans, `CC[C@H](C)[C@H](NC(=O)[C@@H](Cc1ccccc1)NC(=O)[C@@H](Cc1c[nH]c2ccccc12)NC(=O)[C@@H](N)CCCN=C(N)N)C(=O)N[C@H](Cc1ccccc1)C(=O)N[C@@H](Cc1c[nH]cn1)C(=O)N[C@@H](CCCCN)C(=O)N[C@@H](CCCCN)C(=O)N[C@@H](CCCCN)C(N)=O` had an IC50 of 1.83 µM. In the assay with Cryptococcus neoformans, this compound registered a minimum inhibitory concentration (MIC) of 2.37 µM (≈ 3.05 µg/mL).
With `CC[C@H](C)[C@H](NC(=O)[C@@H](Cc1ccccc1)NC(=O)[C@@H](Cc1c[nH]c2ccccc12)NC(=O)[C@@H](N)CCCN=C(N)N)C(=O)N[C@H](Cc1ccccc1)C(=O)N[C@@H](Cc1c[nH]cn1)C(=O)N[C@@H](CCCCN)C(=O)N[C@@H](CCCCN)C(=O)N[C@@H](Cc1ccc(O)cc1)C(N)=O`, in the assay with Candida albicans, half-maximal inhibition (IC50) required 2.74 µM. In the assay on Cryptococcus neoformans, the MIC was found to be 1.16 µM (≈ 1.54 µg/mL).
The corresponding values for `CC[C@H](C)[C@H](NC(=O)[C@@H](Cc1ccccc1)NC(=O)[C@@H](Cc1c[nH]c2ccccc12)NC(=O)[C@@H](N)CCCN=C(N)N)C(=O)N[C@H](Cc1ccccc1)C(=O)N[C@@H](Cc1c[nH]cn1)C(=O)N[C@@H](CCCCN)C(=O)N[C@@H](CCCN=C(N)N)C(=O)N[C@@H](CC(N)=O)C(N)=O` are 4.64 µM and 2.39 µM (≈ 3.11 µg/mL).
`CC[C@H](C)[C@H](NC(=O)[C@@H](Cc1ccccc1)NC(=O)[C@@H](Cc1c[nH]c2ccccc12)NC(=O)[C@@H](N)CCCN=C(N)N)C(=O)N[C@H](Cc1ccccc1)C(=O)N[C@@H](Cc1c[nH]cn1)C(=O)N[C@@H](CCCCN)C(=O)N[C@@H](CCCN=C(N)N)C(=O)N[C@@H](CCCCN)C(N)=O`: the IC50 in the assay on Candida albicans stood at 3.34 µM. The compound also showed an MIC with Cryptococcus neoformans of 2.36 µM (≈ 3.11 µg/mL).
For the compound `CC[C@H](C)[C@H](NC(=O)[C@H](CCCN=C(N)N)NC(=O)[C@H](CCCCN)NC(=O)[C@H](Cc1c[nH]cn1)NC(=O)[C@@H](Cc1ccccc1)NC(=O)[C@@H](NC(=O)[C@@H](Cc1ccccc1)NC(=O)[C@@H](Cc1c[nH]c2ccccc12)NC(=O)[C@@H](N)CCCN=C(N)N)[C@@H](C)CC)C(N)=O`, the IC50 in the assay with Candida albicans stood at 4.64 µM. This compound also returned an MIC with Cryptococcus neoformans of 2.39 µM (≈ 3.11 µg/mL).
The corresponding values for `CC[C@H](C)[C@H](NC(=O)[C@H](CCCCN)NC(=O)[C@H](CCCCN)NC(=O)[C@H](Cc1c[nH]cn1)NC(=O)[C@@H](Cc1ccccc1)NC(=O)[C@@H](NC(=O)[C@@H](Cc1ccccc1)NC(=O)[C@@H](Cc1c[nH]c2ccccc12)NC(=O)[C@@H](N)CCCN=C(N)N)[C@@H](C)CC)C(N)=O` are 1.65 µM and 2.4 µM (≈ 3.06 µg/mL).
In turn, `CC[C@H](C)[C@H](NC(=O)[C@@H](Cc1ccccc1)NC(=O)[C@@H](Cc1c[nH]c2ccccc12)NC(=O)[C@@H](N)CCCN=C(N)N)C(=O)N[C@H](Cc1ccccc1)C(=O)N[C@@H](Cc1c[nH]cn1)C(=O)N[C@@H](CCCCN)C(=O)N[C@@H](CCCCN)C(=O)N[C@H](C(N)=O)C(C)C` gave an IC50 with Candida albicans of 3.08 µM. In the assay with Cryptococcus neoformans, this compound yielded an MIC of 2.43 µM (≈ 3.06 µg/mL).
In the assay with Candida albicans, `CC[C@H](C)[C@H](NC(=O)[C@@H](Cc1ccccc1)NC(=O)[C@@H](Cc1c[nH]c2ccccc12)NC(=O)[C@@H](N)CCCN=C(N)N)C(=O)N[C@H](Cc1ccccc1)C(=O)N[C@@H](Cc1c[nH]cn1)C(=O)N[C@@H](CCCCN)C(=O)N[C@@H](CCCN=C(N)N)C(=O)N[C@H](C(N)=O)C(C)C` returned a concentration for half-maximal inhibition (IC50) of 4.88 µM. The compound further had an MIC in the assay with Cryptococcus neoformans of 4.85 µM (≈ 6.24 µg/mL).
`CC[C@H](C)[C@H](NC(=O)[C@@H](Cc1ccccc1)NC(=O)[C@@H](Cc1c[nH]c2ccccc12)NC(=O)[C@@H](N)CCCN=C(N)N)C(=O)N[C@H](Cc1ccccc1)C(=O)N[C@@H](Cc1c[nH]cn1)C(=O)N[C@@H](CCCCN)C(=O)N[C@@H](CCCCN)C(=O)N[C@@H](CC(N)=O)C(N)=O` yielded a half-inhibitory concentration (IC50) in the assay on Candida albicans of 3.35 µM. In the assay on Cryptococcus neoformans, this compound yielded an MIC of 2.4 µM (≈ 3.06 µg/mL).
The corresponding values for `CC[C@H](C)[C@H](NC(=O)[C@@H](Cc1ccccc1)NC(=O)[C@@H](Cc1c[nH]c2ccccc12)NC(=O)[C@@H](N)CCCN=C(N)N)C(=O)N[C@H](Cc1ccccc1)C(=O)N[C@@H](Cc1c[nH]cn1)C(=O)N[C@@H](CCCCN)C(=O)N[C@@H](CCCN=C(N)N)C(=O)N[C@@H](Cc1ccc(O)cc1)C(N)=O` are 7.08 µM and 4.62 µM (≈ 6.24 µg/mL).
